Publication PMC5593639, “NSC30049 inhibits Chk1 pathway in 5-FU-resistant CRC bulk and stem cell populations” (Oncotarget, 2017)

What was measured:
[1] = tested on: FOLFOX-resistant-HCT116 cells; assay: Cell survival (MTT assay), FOLFOX-resistant-HCT116; type: cell-based; conditions: Homo sapiens, FOLFOX-resistant HCT-116, 48 h
Procedure: (§1) In some experiments, 5-FU, leucovorin and oxaliplatin (FOLFOX)-resistant-HCT-116 and FOLFOX-resistant-HT29 cells were used. These cells were obtained from Dr. Adhip P. Majumdar (John D. Dingell VA Medical Center, Detroit, MI). These cells were generated by exposure to clinically relevant doses and schedules. The exposing schedule was for 12 cycles; each cycle lasted for one week. Briefly, the cells were first exposed to FOLFOX (25 μM 5-FU and 0.625 μM oxaliplatin) for 72 hours. The surviving cells were then cultured in normal medium without the drugs for 4 to 5 days. This cycle was repeated 12 times. The surviving cells were then split and exposed to higher doses of FOLFOX (50 μM 5-FU + 1.25 μM oxaliplatin or 100 μM 5-FU + 2.5 μM oxaliplatin) for 2 to 3 days per week for approximately 4 weeks. […]
(§2) The survival of cells was determined by MTT (3-(4,5-Dimethylthiazol-2yl-)-2,5-diphenyl tetrazolium bromide) assay (ATCC, Manassas, VA, USA). In principle, the viable cell number is directly proportional to the purple formazan color of the reduced MTT dye, which can be quantitatively measured by spectrophotometry. […] The developed color density was then measured spectrophotometrically at 570 nm using the POLARstar Omega micro-plate reader (BMG Labtech, Inc., Cary, NC, USA).

HCT116(p53+/+) cells = assay: MTT assay, IC50 of HU, HCT116(p53+/+); type: cell-based, human; conditions: HU combined with NSC49L, 72 h
Procedure: (§3) The survival of cells was determined by MTT (3-(4,5-Dimethylthiazol-2yl-)-2,5-diphenyl tetrazolium bromide) assay (ATCC, Manassas, VA, USA). In principle, the viable cell number is directly proportional to the purple formazan color of the reduced MTT dye, which can be quantitatively measured by spectrophotometry. Briefly, 1,500 cells were plated in quadruplets in 96-well flat-bottom tissue culture plates. After treatment with compounds for certain periods as described in respective figure legends, 10 μl of MTT reagent was added to each well and incubated at 37°C for 4 h to allow the formation of purple color crystals of formazan. In total, 100 μl of detergent solution was added to each well, and the reaction mixture was incubated in dark for 2–4 h at room temperature. The developed color density was then measured spectrophotometrically at 570 nm using the POLARstar Omega micro-plate reader (BMG Labtech, Inc., Cary, NC, USA).

[2] = tested on: γH2AX(S139P)-foci in HCoEpiC cells; assay: γH2AX(S139P)-foci IHC staining, HCoEpiC; type: cell-based, human; conditions: NSC49L alone or in combination with 5-FU, 24 h
[3] = tested on: Chk1 phosphorylation in HCT-116 cells; assay: Western blot of total and phosphorylated Chk1, HCT-116; type: cell-based, human; conditions: NSC49L alone, 24 h
Procedure: (§4) The levels of various proteins were determined by Western blot analysis with our previously described procedure. The antibodies for phospho-Chk1(Ser317), phospho-Chk1(Ser317), phospho-Chk1(Ser319), phospho-Chk1(Ser345), Chk1, and GAPDH were purchased from Cell Signaling Technology (Danvers, MA, USA).

HCT116(p53−/−) cells = assay: MTT assay, IC50 of HU, HCT116(p53−/−); type: cell-based, human; conditions: HU combined with NSC49L, 72 h
Procedure: as §3

[4] = tested on: human-derived CRC stem cell tumors; assay: Patient-derived tumor xenograft (PDTX) of CRC stem cell tumors; type: in vivo, female SCID mice; conditions: 50 mg/kg body weight NSC49L every day, 30 days
Procedure: With the pharmacokinetics analysis and MTD data in hand, we determined the efficacy of NSC49L and 5-FU alone and in combination for the growth of human-derived CRC stem cell tumors in vivo. CRC stem cells were isolated and characterized from the freshly resected human CRC tumor. One thousands of these CRC stem cells were injected subcutaneously into the right flank of the four 5-week old female SCID mice. After 20 days the first generation tumors (F0) of approximately 2,000 mm^3 in size were harvested. They were divided into four equal pieces and implanted under the skin of the female SCID mice for the growth of second generation tumors (F1) for testing the drug efficacy studies. We divided the F1 tumor bearing mice into four groups and treated them every day subcutaneously with drugs as follows: i) PBS control, (ii) 50 mg/kg body weight NSC49L, (iii) 20 mg/kg body weight 5-FU, and iv) 50 and 20 mg/kg body weight NSC49L and 5-FU, respectively, for 30 days. The treatment with drugs began after 10 days of tumor growth. The body weight and tumor volumes were recorded twice a weak. The experiment was terminated on the 32nd day.

SW480 cells = assay: Cell survival (MTT assay), SW480; type: cell-based; conditions: Homo sapiens, drug alone, 48 h
Procedure: as §3

[5] = tested on: ALDH1, KLF4, Nanog, Oct4, Sox2, c-Myc mRNA in CA2 cells; assay: Stem cell marker and self-renewal gene mRNA levels by qRT-PCR; type: cell-based, human; conditions: 72 h
Procedure: Total RNA was isolated from control and treated cells with RNAzol reagent (Invitogen, Carlsbad, CA, USA). The expression of mRNA levels of stemness genes was determined by qRT-PCR using Bio-Rad CFX96 Real Time System C1000 Thermal Cycler. The primers used for amplification of mRNA levels of genes were from Celprogen, Inc., as shown here with their Gene Bank accession and catalog numbers: ALDHA1 (NM_000689, Cat. No. CepALDHA1-02), Klf4 (NM_004235, Cat No. CepKlf4-02), Nanog (NM_024865, Cat. No. CepNanog-02), Oct4 (NM_002701, Cat No. CepOct4-02), Sox2 (NM_003106, Cat. No. CepSox2-02), c-Myc (NM_002467, Cat. No. Cepc-Myc-02) and GAPDH (NM_002046, Cat. No. Cep-GAPDH-02).

RKO cells = assay: Cell survival (MTT assay), RKO; type: cell-based; conditions: Homo sapiens, drug alone, 48 h
Procedure: as §3

[6] = tested on: HCoEpiC normal colonic epithelial cell line; assay: Cell survival (MTT assay), HCoEpiC; type: cell-based; conditions: Homo sapiens, drug alone, 48 h
Procedure: as §3

[7] = tested on: Chk1 phosphorylation in CA2 cells; assay: Western blot of total and phosphorylated Chk1, CA2; type: cell-based, human; conditions: NSC49L alone, 24 h
Procedure: as §4

[8] = tested on: FOLFOX-resistant-HT29 cells; assay: Cell survival (MTT assay), FOLFOX-resistant-HT29; type: cell-based; conditions: Homo sapiens, FOLFOX-resistant HT-29, 48 h
Procedure: as §1, §2

[9] = tested on: Chk1 phosphorylation in HT29 cells; assay: Western blot of total and phosphorylated Chk1, HT29; type: cell-based, human
Procedure: as §4

CA2 CRC stem cell line = assay: Spheroid (sphere) formation assay; type: cell-based; conditions: Homo sapiens; drug alone, seventh day
Procedure: Live CA2 cells (100) were seeded in 384-well ultra-low attachment plates. Next, day cells were treated with different concentrations of NSC49L and 5-FU either alone or in combination. Cells were incubated for 7 days and the number of spheroids were counted in control and treated groups under an Olympus inverted microscope with a 10× magnification.

[10] = 2 mM HU 24 h, then NSC49L 5, 10, 20 μM additional 8 h

For ClC/C=C/C[N+]12CN3CN(CN(C3)C1)C2 [NSC49L], the IC50 [1] was 5.4 µM, the “IC50 of HU” value (HCT116(p53+/+) cells) was “further decreased” and the “replication stress-mediated DNA damage (γH2AX(S139P)-foci)” value [2] was “no effect”. The “Chk1(S317P) and Chk1(S296P) levels” value [3] was “no effect”, the “Chk1(S345P) levels” value [3] was “dose-dependent increase” and the “IC50 of HU” value (HCT116(p53−/−) cells) was “further decreased”. The “Growth of CRC stem cell tumors” value [4] was “significant growth inhibition”, the IC50 (SW480 cells) was 4.4 ± 0.2 µM and the “mRNA levels of ALDH1, KLF4 and Nanog” value ([5]; NSC49L combined with 5-FU) was “further decreased”. For the same molecule, the “mRNA levels of ALDH1, KLF4, Nanog, Oct4, Sox2 and c-Myc” value ([5]; drug alone, normalized with GAPDH) was “decreased”, the IC50 (RKO cells) was 4.9 ± 0.4 µM and the IC50 [6] was 31.9 ± 0.9 µM. The “Chk1(S317P) and Chk1(S296P) levels” value [7] was “very little change”, the “Chk1(S345P) level” value [7] was “increase in a dose-dependent manner” and the IC50 [8] was 3.1 µM. The “Chk1(S296P) levels” value [9, 10] was “increased at low concentrations of NSC49L (5 μM), but decreased at 10 and 20 μM concentrations”, the “Chk1(S317P) level” value [9, 10] was “decreased in a dose-dependent manner” and the “Chk1(S345P) level” value ([9]; 2 mM HU 24 h, then NSC49L additional 8 h) was “increased above the HU treatment level in a dose-dependent manner”. The Chk1 phosphorylation ([9]; NSC49L alone, 8 h) was “did not show any significant effect” and the IC50 (CA2 CRC stem cell line) was 4.8 µM.
